Assay results from patent US10925856B2, “Methods and compositions involving bucindolol for the treatment of atrial fibrillation” (priority 2018, dated 2021).
Like-named read-outs stand apart in the source and are kept apart here.

[1] = CYP2D6 Extensive/Ultra Metabolizer
[2] = Drug Titration Period (first 42 days)
[3] = treatment-emergent AE, total follow-up

Compound: COCCc1ccc(OCC(O)CNC(C)C)cc1 (stereo not drawn) [metoprolol, metoprolol succinate, reference compound]
- HEADACHE, % of patients [1]: (4.5%)
- HEADACHE, number of patients [1]: 5
- HYPOTENSION, % of patients [1]: (8.1%)
- HYPOTENSION, number of patients [1]: 9
- IMMUNE SYSTEM DISORDERS, % of patients [1]: (0.9%)
- IMMUNE SYSTEM DISORDERS, number of patients [1]: 1
- INFECTIONS AND INFESTATIONS, % of patients [1]: (20.7%)
- INFECTIONS AND INFESTATIONS, number of patients [1]: 23
- INFLUENZA, % of patients [1]: (2.7%)
- INFLUENZA, number of patients [1]: 3
- HEADACHE, % of patients (CYP2D6 Poor Metabolizer): (0.0%)
- HEADACHE, number of patients (CYP2D6 Poor Metabolizer): 0
- INFECTIONS AND INFESTATIONS, % of patients (CYP2D6 Poor Metabolizer): (12.5%)
- INFECTIONS AND INFESTATIONS, number of patients (CYP2D6 Poor Metabolizer): 1
- INFLUENZA, % of patients (CYP2D6 Poor Metabolizer): (0.0%)
- INFLUENZA, number of patients (CYP2D6 Poor Metabolizer): 0
- UPPER RESPIRATORY TRACT INFECTION, % of patients (CYP2D6 Poor Metabolizer): (0.0%)
- UPPER RESPIRATORY TRACT INFECTION, number of patients (CYP2D6 Poor Metabolizer): 0
- AC mortality or CV hosp or treatment disc. due to AE, patients N (%) [2]: 6 (5%)
- All-cause mortality, patients N (%) [2]: 1 (1%)
- AEs leading to study withdrawal (excluding death) (GENETIC-AF, all randomized patients): 1.5%
- Adverse event leading to death, patients N (%) (Total Study On-Drug Period): 2.3%
- Adverse events leading to study withdrawal (excluding death), patients N (%) (Total Study On-Drug Period): 2 (1.5%)
- Adverse event leading to death, patients N (%) (Total Study On-Drug Period, listed as Metoprolol): 3 (2.3%)
- AE SOC frequency: Cardiac Disorders (human, in vivo): 26.3%
- AE SOC frequency: Eye Disorders (human, in vivo): 3.0%
- AE SOC frequency: Gastrointestinal Disorders (human, in vivo): 18.0%
- AE SOC frequency: Hepatobiliary Disorders (human, in vivo): 2.3%
- AE SOC frequency: Infections and Infestations (human, in vivo): 21.8%
- AE SOC frequency: Investigators (human, in vivo): 7.5%
- AE SOC frequency: Metabolism and Nutrition Disorders (human, in vivo): 12.0%
- AE SOC frequency: Musculoskeletal and Connective Tissue Disorders (human, in vivo): 15.0%
- AE SOC frequency: Neoplasms Benign Malignant and Unspecified (human, in vivo): 6.8%
- AE SOC frequency: Renal and Urinary Disorders (human, in vivo): 9.8%
- AE SOC frequency: Respiratory, Thoracic and Mediastinal Disorders (human, in vivo): 10.5%
- AE frequency: arthralgia (human, in vivo): 3.8%
- AE frequency: cardiac failure (human, in vivo): 3.8%
- AE frequency: chronic kidney disease (human, in vivo): 0.8%
- AE frequency: constipation (human, in vivo): 1.5%
- AE frequency: epistaxis (human, in vivo): 0.0%
- AE frequency: hematuria (human, in vivo): 0.0%
- AE frequency: hypomagnesaemia (human, in vivo): 0.0%
- AE frequency: hypotension (human, in vivo): 7.5%
- AE frequency: pneumonia (human, in vivo): 0.8%
- AE frequency: upper respiratory tract infection (human, in vivo): 4.5%
- AEs leading to permanent study drug discontinuation (human, in vivo): 8.3%
- AEs: Bradycardia (human, in vivo): 12.0%
- AEs: Stroke (99% on OACs) (human, in vivo): 0.0%
- Adverse event possible/probably related to study drug, patients N (%) (human, in vivo): 40 (30.1%)
- Adverse events leading to permanent study drug discontinuation, patients N (%) (human, in vivo): 11 (8.3%)
- Adverse events related to neoplasm, patients N (%) (human, in vivo): 9 (6.8%)
- Any bradycardia event, % of patients (human, in vivo): (12%)
- Any bradycardia event, number of patients (human, in vivo): 16
- Any bradycardia, % of patients (human, in vivo): (12%)
- Any bradycardia, number of patients (human, in vivo): 16
- Any serious adverse event, % of patients (human, in vivo): (20%)
- Any serious adverse event, number of patients (human, in vivo): 26
- Asymptomatic bradycardia event, % of patients (human, in vivo): (8%)
- Asymptomatic bradycardia event, number of patients (human, in vivo): 10
- Asymptomatic bradycardia, % of patients (human, in vivo): (8%)
- Asymptomatic bradycardia, number of patients (human, in vivo): 10
- Bradycardia AEs (human, in vivo): 3 (38%)
- Bradycardia event leading to study drug discontinuation, % of patients (human, in vivo): (1%)
- Bradycardia event leading to study drug discontinuation, number of patients (human, in vivo): 1
- Bradycardia event leading to study drug dose interruption, % of patients (human, in vivo): (2%)
- Bradycardia event leading to study drug dose interruption, number of patients (human, in vivo): 2
- Bradycardia event leading to study drug dose reduction, % of patients (human, in vivo): (8%)
- Bradycardia event leading to study drug dose reduction, number of patients (human, in vivo): 11
- CAD, % of patients (human, in vivo): (1%)
- CAD, number of patients (human, in vivo): 1
- Cardiac AE rate (heart failure or bradycardia events) (human, in vivo): 50%
- Cardiovascular serious adverse event, % of patients (human, in vivo): (10%)
- Cardiovascular serious adverse event, number of patients (human, in vivo): 13
- Catheterization, % of patients (human, in vivo): (1%)
- Catheterization, number of patients (human, in vivo): 1
- EPISTAXIS, % of patients (human, in vivo): (0.0%)
- EPISTAXIS, number of patients (human, in vivo): 0
- HAEMATURIA, % of patients (human, in vivo): (0.0%)
- HAEMATURIA, number of patients (human, in vivo): 0
- HYPOMAGNESAEMIA, % of patients (human, in vivo): (0.0%)
- HYPOMAGNESAEMIA, number of patients (human, in vivo): 0
- Heart block (Mobitz I/II, 2:1, or 3rd degree), % of patients (human, in vivo): (0%)
- Heart block (Mobitz I/II, 2:1, or 3rd degree), number of patients (human, in vivo): 0
- ICD Implantation, % of patients (human, in vivo): (5%)
- ICD Implantation, number of patients (human, in vivo): 7
- Incidence of Cr > 3.0, % of patients (human, in vivo): (1%)
- Incidence of Cr > 3.0, number of patients (human, in vivo): 1
- Incidence of bilirubin > 2.0, % of patients (human, in vivo): (2%)
- Incidence of bilirubin > 2.0, number of patients (human, in vivo): 2
- Non-CNS Embolism, % of patients (human, in vivo): (0%)
- Non-CNS Embolism, number of patients (human, in vivo): 0
- Pacemaker Implantation, % of patients (human, in vivo): (2%)
- Pacemaker Implantation, number of patients (human, in vivo): 3
- SAE SOC frequency: Infections and Infestations (human, in vivo): 3.0%
- SAE SOC frequency: Renal and Urinary Disorders (human, in vivo): 1.5%
- SAE SOC frequency: Respiratory, Thoracic and Mediastinal Disorders (human, in vivo): 1.5%
- SAE frequency: Cardiac Failure (human, in vivo): 2.3%
- SAE frequency: Cardiac Failure Congestive (human, in vivo): 5.3%
- SAEs: Any cardiovascular event (human, in vivo): 9.8%
- Stroke, % of patients (human, in vivo): (0%)
- Stroke, number of patients (human, in vivo): 0
- Symptomatic bradycardia event, % of patients (human, in vivo): (5%)
- Symptomatic bradycardia event, number of patients (human, in vivo): 7
- Symptomatic bradycardia, % of patients (human, in vivo): (5%)
- Symptomatic bradycardia, number of patients (human, in vivo): 7
- TIA, % of patients (human, in vivo): (1%)
- TIA, number of patients (human, in vivo): 1
- UPPER RESPIRATORY TRACT INFECTION, % of patients (human, in vivo): (4.5%)
- UPPER RESPIRATORY TRACT INFECTION, number of patients (human, in vivo): 5
- All-cause hospitalization, patients N (%) (human, in vivo, 42 days): 9 (7%)
- Any serious adverse event, patients N (%) (human, in vivo, 42 days): 10 (8%)
- Asymptomatic bradycardia, patients N (%) (human, in vivo, 42 days): 4 (3%)
- Cardiovascular hospitalization, patients N (%) (human, in vivo, 42 days): 4 (3%)
- Heart failure hospitalization, patients N (%) (human, in vivo, 42 days): 4 (3%)
- Symptomatic bradycardia, patients N (%) (human, in vivo, 42 days): 3 (2%)
- Treatment-related cardiovascular serious adverse event, patients N (%) (human, in vivo, 42 days): 0 (0%)
- Treatment-related serious adverse event, patients N (%) (human, in vivo, 42 days): 0 (0%)
- Ablation, % of patients (in vivo): (14%)
- Ablation, number of patients (in vivo): 18
- Additional ECV After Successful SR, % of patients (in vivo): (23%)
- Additional ECV After Successful SR, number of patients (in vivo): 30
- Anti-Arrhythmic Therapy, % of patients (in vivo): (33%)
- Anti-Arrhythmic Therapy, number of patients (in vivo): 44
- Appropriate Firing of on ICD, % of patients (in vivo): (1%)
- Appropriate Firing of on ICD, number of patients (in vivo): 1
- Rate Control Therapy, % of patients (in vivo): (11%)
- Rate Control Therapy, number of patients (in vivo): 15
- TIA, patients (in vivo): One
- HEADACHE, % of patients [3]: (3.8%)
- HEADACHE, number of patients [3]: 5
- INFECTIONS AND INFESTATIONS, % of patients [3]: (21.8%)
- INFECTIONS AND INFESTATIONS, number of patients [3]: 29
- INFLUENZA, % of patients [3]: (2.3%)
- INFLUENZA, number of patients [3]: 3
- UPPER RESPIRATORY TRACT INFECTION, % of patients [3]: (4.5%)
- UPPER RESPIRATORY TRACT INFECTION, number of patients [3]: 6
- INFECTIONS AND INFESTATIONS, % of patients (treatment-emergent serious AE): (3.0%)
- INFECTIONS AND INFESTATIONS, number of patients (treatment-emergent serious AE): 4
